The record followed here is ChEMBL document CHEMBL1201862, “PubChem BioAssay data set” (2004).

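1) Cells in 96-well plates. 2) Compound, 48 h, 5 concentrations. 3) Linear interpolation between surrounding doses. 4) Unreached endpoint = highest concentration. At the GI50, growth is halved.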 Calls of active or inactive are those of the source. Rule as the data show it: active = GI50 up to about 1.1 µM and inactive = higher.

Test systems include RPMI-8226; HOP-92; HT-29; SN12C; CAKI-1; SF-268; SK-MEL-5; NCI-H23; SK-MEL-2; IGROV-1; EKVX; PC-3; TK-10; HCT-15; T47D; HL-60; LOX IMVI; SR; CCRF-CEM; Hs-578T.
Holding throughout (test): NCI anticancer screen, dose series, 48 h

Take `Sc1nnc(CNc2ccc(-c3nnc(S)n3-c3ccc(Cl)cc3)cc2)n1-c1ccc(Cl)cc1`: the GI50 was 16.7 µM (inactive) in the test with RPMI-8226; 23.9 µM (inactive) in the test on HOP-92; 25.3 µM (inactive) in the test with HT-29; 24.2 µM (inactive) in the test on SN12C; 19.4 µM (inactive) in the test on CAKI-1; 30.3 µM (inactive) in the test on SF-268. Moreover, the GI50 in the test on SK-MEL-5 is 25.1 µM (inactive); in the test on NCI-H23, 39 µM (inactive); in the test with SK-MEL-2, 22.4 µM (inactive); in the test with IGROV-1, 3.21 µM (inactive); in the test with EKVX, 45.3 µM (inactive); in the test on PC-3, 36 µM (inactive). Besides, the GI50 in the test on TK-10 was 37.2 µM (inactive); with HCT-15 it was 48 µM.

For the compound `CO/C(=N\N=C\c1ccc(Cl)c(Cl)c1)c1ccncc1`, the GI50 with T47D was > 10 µM (inactive); in the test with RPMI-8226 it was > 10 µM (inactive); in the test on HOP-92, 4.26 µM (inactive); in the test on HL-60, > 10 µM (inactive); in the test on SN12C, > 10 µM (inactive); with CAKI-1, > 10 µM (inactive). Moreover, the GI50 with LOX IMVI was > 10 µM (inactive); in the test with SF-268, > 10 µM (inactive); with SK-MEL-5, > 10 µM (inactive); with NCI-H23 it was > 10 µM (inactive); with SR, 2.75 µM (inactive); in the test on SK-MEL-2, > 10 µM (inactive). The GI50 was > 10 µM (inactive) in the test with IGROV-1; > 10 µM (inactive) in the test with PC-3; > 10 µM (inactive) in the test with CCRF-CEM; > 10 µM (inactive) in the test with TK-10; greater than 10 µM in the test on HCT-15.

In the case of `CCOC(=O)C(C(C)=O)C1CC=CC1` (stereo unspecified), the GI50 in the test with RPMI-8226, in the test on HOP-92, with HL-60, in the test with HT-29, in the test on SN12C and with CAKI-1 was > 100 µM (inactive) throughout. In addition, the GI50 in the test on LOX IMVI, in the test with SK-MEL-5, in the test on SK-MEL-2, with IGROV-1, in the test with EKVX and in the test with CCRF-CEM was > 100 µM (inactive) in each case. Also, the GI50 in the test on TK-10 is > 100 µM (inactive); in the test on HCT-15, greater than 100 µM.

In the case of `CC(=O)N1N=C(c2ccc3ccccc3c2O)CC1c1cccs1` (stereo unspecified), the GI50 with T47D was 11.6 µM (inactive); with RPMI-8226, 6.55 µM (inactive); in the test on HOP-92, 33.7 µM (inactive); in the test with HT-29, 21.9 µM (inactive); in the test on SN12C it was 12.1 µM (inactive); in the test with CAKI-1, 20.1 µM (inactive). Moreover, the GI50 in the test on Hs-578T is 28.6 µM (inactive); with SF-268, 12.3 µM (inactive); in the test with SK-MEL-5 it was 18.3 µM (inactive); in the test with NCI-H23, 20.3 µM (inactive); with SR, 3.6 µM (inactive); in the test with SK-MEL-2 it was 19 µM (inactive). The GI50 in the test with IGROV-1 was 11.4 µM (inactive); with PC-3, 11.1 µM (inactive); in the test with CCRF-CEM, 4.04 µM (inactive); in the test with TK-10, 25 µM (inactive); with HCT-15, 14 µM.

With `O=c1[nH]c(=O)n(C2CC(O)C(CO)O2)cc1C#Cc1cc(C(F)(F)F)cc(C(F)(F)F)c1` (stereo unspecified), the GI50 in the test with RPMI-8226 is > 29.6 µM (inactive); in the test on HOP-92 it was 33.8 µM (inactive); with HL-60, > 60.4 µM (inactive); in the test with HT-29 it was > 31.8 µM (inactive); in the test with SN12C, > 27.9 µM (inactive); in the test on CAKI-1, > 100 µM (inactive). Also, the GI50 is > 25.5 µM (inactive) in the test on LOX IMVI; 43.9 µM (inactive) in the test on SF-268; > 27.4 µM (inactive) with SK-MEL-5; 24.4 µM (inactive) in the test on NCI-H23; > 100 µM (inactive) in the test with SR; > 36.9 µM (inactive) in the test on SK-MEL-2. Moreover, the GI50 in the test with IGROV-1 is > 36.4 µM (inactive); in the test with EKVX, 40.3 µM (inactive); with CCRF-CEM it was > 100 µM (inactive); with TK-10 it was > 100 µM (inactive); in the test with HCT-15, greater than 50.7 µM.

Take `COc1ccc(-n2c(CCCC(=O)O)nc3c2C(=O)c2ccccc2C3=O)cc1`: the GI50 was 88.3 µM (inactive) in the test on T47D; 36.3 µM (inactive) in the test with RPMI-8226; 20.2 µM (inactive) in the test on HOP-92; 31.1 µM (inactive) with HL-60; 54.6 µM (inactive) with SN12C; > 100 µM (inactive) in the test with CAKI-1. For the same compound, the GI50 in the test with Hs-578T is > 100 µM (inactive); in the test on LOX IMVI it was 54.8 µM (inactive); in the test with SF-268, 46.7 µM (inactive); in the test on NCI-H23, 44.1 µM (inactive); with SR, 66.8 µM (inactive); with SK-MEL-2 it was 84.7 µM (inactive). Besides, the GI50 in the test on IGROV-1 was 79.3 µM (inactive); with EKVX it was 60.7 µM (inactive); in the test with CCRF-CEM it was 36.3 µM (inactive); in the test with TK-10, > 100 µM (inactive); in the test on HCT-15, 44.5 µM.

As to `CCCN(CCC)CCc1ccc(OC2=CCN(C)CC2)cc1`, the GI50 in the test with T47D is > 100 µM (inactive); in the test with RPMI-8226 it was > 100 µM (inactive); in the test with HL-60, 35.8 µM (inactive); in the test with HT-29, 16 µM (inactive); with SN12C it was > 100 µM (inactive); in the test with CAKI-1 it was > 100 µM (inactive). Besides, the GI50 in the test on Hs-578T was 40.6 µM (inactive); in the test on LOX IMVI it was 23 µM (inactive); in the test on SF-268, 86.1 µM (inactive); in the test on SK-MEL-5, 32.3 µM (inactive); in the test on NCI-H23, > 100 µM (inactive); with SR, 28.2 µM (inactive). In addition, the GI50 in the test with SK-MEL-2 is > 100 µM (inactive); in the test on IGROV-1 it was 67.3 µM (inactive); in the test on EKVX, > 100 µM (inactive); in the test with PC-3 it was > 100 µM (inactive); with CCRF-CEM, 93.5 µM (inactive); with TK-10, 87.3 µM (inactive). The GI50 with HCT-15 was 36.9 µM.

Consider `O=C1Cc2c(-c3ccccc3)cc(-c3ccccc3)nc2-c2ccccc2N1`, for which the GI50 was 10.9 µM (inactive) with T47D; 39.7 µM (inactive) in the test on RPMI-8226; 21.3 µM (inactive) with HOP-92; 75.9 µM (inactive) in the test with HL-60; 3.61 µM (inactive) in the test with HT-29; 4.04 µM (inactive) in the test on SN12C. The GI50 in the test with CAKI-1 was 3.64 µM (inactive); in the test on Hs-578T, 4.07 µM (inactive); with LOX IMVI it was 4.37 µM (inactive); in the test on SF-268, 5.7 µM (inactive); in the test on SK-MEL-5 it was 2.38 µM (inactive); in the test on NCI-H23, 6.65 µM (inactive). Besides, the GI50 in the test with SK-MEL-2 was 2.66 µM (inactive); in the test on IGROV-1 it was 18.6 µM (inactive); in the test with EKVX it was 13.2 µM (inactive); with PC-3 it was 8.69 µM (inactive); in the test on CCRF-CEM, 17.2 µM (inactive); in the test on HCT-15, 1.57 µM.

With `Cc1cc(S(=O)(=O)O)c(NC(=O)C(=O)C2C=CCS2(=O)=O)cc1Cl` (stereo unspecified), the GI50 in the test on RPMI-8226, with HOP-92, in the test on HL-60, in the test on HT-29, in the test with SN12C and in the test with CAKI-1 was > 100 µM (inactive) throughout. The GI50 with LOX IMVI, with SF-268, in the test with SK-MEL-5, in the test on NCI-H23, in the test on SR and in the test on SK-MEL-2 was > 100 µM (inactive) in each case. Further, the GI50 with IGROV-1 is > 100 µM (inactive); with EKVX it was > 100 µM (inactive); with CCRF-CEM, > 100 µM (inactive); in the test on TK-10, > 100 µM (inactive); in the test with HCT-15 it was greater than 100 µM.

As for `CC1(C)CCC[C@@]2(C)C1C[C@H](O)[C@@]1(C)O[C@@](C)([C@H](O)CO)CCC21` (stereo partly specified), the GI50 in the test with RPMI-8226 was 20 µM (inactive); in the test with HOP-92, 23.7 µM (inactive); in the test on HL-60, 24.9 µM (inactive); with HT-29, 33 µM (inactive); in the test with SN12C it was 37.2 µM (inactive); with CAKI-1 it was 35.8 µM (inactive). Besides, the GI50 with SF-268 is 30.4 µM (inactive); in the test with SK-MEL-5, 20.9 µM (inactive); in the test on NCI-H23 it was 33.7 µM (inactive); in the test on SK-MEL-2, 20.7 µM (inactive); with IGROV-1, 28.9 µM (inactive); with EKVX it was > 100 µM (inactive). In addition, the GI50 in the test on CCRF-CEM is 29.7 µM (inactive); with TK-10, 22.9 µM (inactive); in the test with HCT-15 it was 45.5 µM.

On to `OC[C@@H](O)[C@H]1NC[C@@H](O)[C@H]1O`, for which the GI50 in the test on RPMI-8226, in the test with HOP-92, with HL-60, in the test with HT-29, in the test with SN12C and with CAKI-1 was > 100 µM (inactive) each time. The GI50 in the test with Hs-578T, in the test on SF-268, in the test on SK-MEL-5, in the test with NCI-H23, with SR and in the test with IGROV-1 was > 100 µM (inactive) throughout. Also, the GI50 is > 100 µM (inactive) with EKVX; > 100 µM (inactive) with PC-3; > 100 µM (inactive) in the test with CCRF-CEM; > 100 µM (inactive) in the test on TK-10; greater than 100 µM in the test with HCT-15.

For the compound `COC1C(=[N+]=[N-])C(=O)NC(=O)N1C1OC(COC(c2ccccc2)(c2ccccc2)c2ccccc2)C(O)C1O` (stereo unspecified), the GI50 was 25.2 µM (inactive) in the test with RPMI-8226; 23.2 µM (inactive) in the test with HL-60; 18.7 µM (inactive) in the test on HT-29; 16.3 µM (inactive) in the test with SN12C; 18.6 µM (inactive) in the test on CAKI-1; 15.5 µM (inactive) in the test on LOX IMVI. The GI50 with SF-268 was 18.1 µM (inactive); with SK-MEL-5, 16.2 µM (inactive); with NCI-H23, 18.2 µM (inactive); in the test with SK-MEL-2, 19.1 µM (inactive); in the test with IGROV-1, 20.6 µM (inactive); in the test on EKVX, 19 µM (inactive). Moreover, the GI50 in the test with CCRF-CEM was 16.5 µM (inactive); with HCT-15 it was 18 µM.
